Measured values taken from PMC8116058, “De novo macrocyclic peptides dissect energy coupling of a heterodimeric ABC transporter by multimode allosteric inhibition” (eLife, 2021).
Positions of bridges follow the written chain, without caps; N, C: chain ends. Non-standard residues stand in square brackets, D forms with d. Residues, ends and D or L forms follow the SMILES beside them. *: point of attachment. 5FAM = O=C1OC2(c3ccc(O)cc3Oc3cc(O)ccc32)c2ccc(C(=O)*)cc21; βAla = NCCC(=O)O

Target: T1, TmrAB reconstituted in liposomes (Thermus thermophilus, UniProt Q72J04+Q72J05)
T1 sequence (Q72J05 1-600): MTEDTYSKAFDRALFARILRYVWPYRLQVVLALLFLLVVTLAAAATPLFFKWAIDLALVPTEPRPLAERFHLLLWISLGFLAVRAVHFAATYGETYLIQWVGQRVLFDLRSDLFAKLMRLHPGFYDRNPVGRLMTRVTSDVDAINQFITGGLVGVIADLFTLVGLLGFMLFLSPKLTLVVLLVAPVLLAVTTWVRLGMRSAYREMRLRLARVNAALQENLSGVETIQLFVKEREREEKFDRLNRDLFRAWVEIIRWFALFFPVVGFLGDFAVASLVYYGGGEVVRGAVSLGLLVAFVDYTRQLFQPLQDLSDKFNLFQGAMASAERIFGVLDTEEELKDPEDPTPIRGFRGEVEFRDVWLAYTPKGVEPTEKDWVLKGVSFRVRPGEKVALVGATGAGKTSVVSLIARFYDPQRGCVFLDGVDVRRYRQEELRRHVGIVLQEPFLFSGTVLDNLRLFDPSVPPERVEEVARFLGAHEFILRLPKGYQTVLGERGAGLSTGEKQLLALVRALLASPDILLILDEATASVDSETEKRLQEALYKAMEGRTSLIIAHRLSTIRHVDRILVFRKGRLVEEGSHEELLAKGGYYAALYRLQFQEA
T1 sequence (Q72J04 1-578): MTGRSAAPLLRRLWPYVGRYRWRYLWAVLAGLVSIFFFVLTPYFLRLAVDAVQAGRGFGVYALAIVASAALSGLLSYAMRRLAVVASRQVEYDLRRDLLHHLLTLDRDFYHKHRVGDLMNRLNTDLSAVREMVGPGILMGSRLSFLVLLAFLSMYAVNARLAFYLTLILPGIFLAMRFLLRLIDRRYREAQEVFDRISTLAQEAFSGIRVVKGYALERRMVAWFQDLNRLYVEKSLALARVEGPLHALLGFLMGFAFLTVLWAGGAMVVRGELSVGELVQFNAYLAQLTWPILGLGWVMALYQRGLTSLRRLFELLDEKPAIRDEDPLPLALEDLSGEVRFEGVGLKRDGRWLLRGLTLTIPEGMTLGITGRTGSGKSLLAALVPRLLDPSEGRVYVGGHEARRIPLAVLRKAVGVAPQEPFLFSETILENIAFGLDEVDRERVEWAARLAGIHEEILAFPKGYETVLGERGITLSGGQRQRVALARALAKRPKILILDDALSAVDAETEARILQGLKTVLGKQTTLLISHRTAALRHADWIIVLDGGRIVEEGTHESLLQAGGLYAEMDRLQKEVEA
Assay: Filter-based transport assay, CP^Fs tested as substrates
Type: biochemical
Details: TmrAB 0.4 µM in liposomes, C4F 3 µM or CP^F 1 µM, 5 min 45°C
From the text: In order to investigate the functional impact of CPs, we examined the effect of the CPs on ATP hydrolysis and substrate transport of TmrAB (Figure 3A). We reconstituted TmrAB in liposomes and first assayed the ATPase activity. […] We next set out to investigate peptide transport by TmrAB using a filter-based transport assay. To investigate whether CPs are recognized as substrates by TmrAB, we added fluorescein-labeled CP^Fs and examined ATP-dependent translocation. In contrast to the linear substrate peptide C4F, none of the CP^Fs were transported by TmrAB (Figure 3C). Next, we examined ATP-dependent transport of C4F peptides in the presence and absence of the different CPs.
Figure 3. CP^Fs are potent inhibitors of ATP turnover and substrate transport. (A) Experimental scheme of ATP hydrolysis and peptide transport by TmrAB. (B) CP^Fs inhibit ATP hydrolysis. TmrAB in liposomes (100 nM) was incubated with ATP (2 mM, traced with [γ^32P]-ATP), and MgCl2 (5 mM) in the presence and absence of CP^Fs (1 µM) for 10 min at 45°C. Autohydrolysis was determined in the absence of TmrAB, and background turnover was conducted in the presence of EDTA (10 mM). Release of [γ^32P] was quantified by thin layer chromatography. (C) CP^Fs are not transported by TmrAB. TmrAB (0.4 µM) reconstituted in liposomes was incubated with C4F peptide (3 µM) or CP^Fs (1 µM) in the presence of ATP/ADP (3 mM) and MgCl2 (5 mM) for 5 min at 45°C. Since CP^Fs were dissolved in maximal 0.5% (v/v) of DMSO, C4F plus 0.5% DMSO served as control. Proteoliposomes were washed on filter plates, and transported peptides were quantified at λex/em = 485/520 nm. (D) Inhibition of substrate translocation. TmrAB in liposomes (0.4 µM) were incubated with C4F peptide (3 µM), ATP/ADP (3 mM), and MgCl2 (5 mM) in the presence and absence of CP^Fs (1 µM) for 15 min at 45°C. Transported peptides were quantified as described in (C). In (B–C), mean values ± SD (n = 3) are shown. Figure 3—source data 1. Source data for Figure 3.
TmrAB in liposomes (0.4 µM) were incubated with ATP/ADP (3 mM), MgCl2 (5 mM), C4F peptide (3 µM), and CP^Fs (1 µM) for 15 min at 45°C. […] Proteoliposomes were solubilized by adding SDS (1% [v/v]) in transport buffer for 10 min at 20°C. Transported peptides were quantified at λex/em = 485/520 nm using a microplate reader (CLARIOstar, BMG LABTECH).

Molecule CC(C)[C@@H]1NC(=O)[C@H](Cc2ccccc2)NC(=O)[C@@H]2CCCN2C(=O)[C@H](CC(N)=O)NC(=O)[C@H](Cc2c[nH]c3ccccc23)NC(=O)[C@H](C(C)C)NC(=O)[C@H](Cc2ccc(O)cc2)NC(=O)[C@H](Cc2ccccc2)NC(=O)[C@@H](Cc2ccc(O)cc2)NC(=O)CSC[C@@H](C(=O)NCC(=O)N[C@@H](CO)C(=O)NCCC(=O)NCCC(=O)N[C@@H](CCCNC(=N)N)C(=O)N[C@@H](CCCCNC(=O)c2ccc3c(c2)C(=O)OC32c3ccc(O)cc3Oc3cc(O)ccc32)C(N)=O)NC(=O)[C@H](CCCCN)NC(=O)[C@H](Cc2ccccc2)NC1=O [CP14] ({CH2CO}-[dY]FYVWNPFVFKCGS[βAla][βAla]RK(5FAM)-NH2; thioether N-12; C-terminus assumed) has a Transported peptide (ADP 3 mM (background)) of 0.25 µmol·g/min and a Transported peptide (ATP 3 mM) of 0.26 µmol·g/min.

CC[C@H](C)[C@@H]1NC(=O)[C@H]([C@@H](C)O)NC(=O)[C@H](CC(C)C)NC(=O)[C@H](Cc2c[nH]c3ccccc23)NC(=O)[C@H](Cc2ccccc2)NC(=O)[C@H](CC(N)=O)NC(=O)[C@H](CCC(=O)O)NC(=O)[C@H](CC(C)C)NC(=O)[C@H](CS)NC(=O)[C@H](Cc2c[nH]cn2)NC(=O)[C@H](CO)NC(=O)[C@@H](Cc2ccc(O)cc2)NC(=O)CSC[C@@H](C(=O)NCC(=O)N[C@@H](CO)C(=O)NCCC(=O)NCCC(=O)N[C@@H](CCCNC(=N)N)C(=O)N[C@@H](CCCCNC(=O)c2ccc3c(c2)C(=O)OC32c3ccc(O)cc3Oc3cc(O)ccc32)C(N)=O)NC(=O)[C@H](CC(C)C)NC1=O [CP6] ({CH2CO}-[dY]SHCLENFWLTILCGS[βAla][βAla]RK(5FAM)-NH2; thioether N-14) showed a Transported peptide (ADP 3 mM (background)) of 0.38 µmol·g/min and a Transported peptide (ATP 3 mM) of 0.33 µmol·g/min.

With CC(C)C[C@@H]1NC(=O)[C@H](Cc2ccccc2)NC(=O)CNC(=O)[C@H](CO)NC(=O)[C@H](Cc2ccccc2)NC(=O)[C@H](CC(=O)O)NC(=O)[C@@H]2CCCN2C(=O)[C@H]([C@@H](C)O)NC(=O)[C@@H](Cc2ccc(O)cc2)NC(=O)CSC[C@@H](C(=O)NCC(=O)N[C@@H](CO)C(=O)NCCC(=O)NCCC(=O)N[C@@H](CCCNC(=N)N)C(=O)N[C@@H](CCCCNC(=O)c2ccc3c(c2)C(=O)OC32c3ccc(O)cc3Oc3cc(O)ccc32)C(N)=O)NC(=O)[C@H](C)NC(=O)[C@H](CC(N)=O)NC(=O)[C@H](CCCNC(=N)N)NC(=O)[C@H](CC(C)C)NC(=O)[C@H](Cc2ccccc2)NC(=O)[C@H](C)NC1=O [CP12] ({CH2CO}-[dY]TPDFSGFLAFLRNACGS[βAla][βAla]RK(5FAM)-NH2; thioether N-16) the Transported peptide (ADP 3 mM (background)) was 0.55 µmol·g/min and the Transported peptide (ATP 3 mM) was 0.44 µmol·g/min.

Work on CC[C@H](C)[C@@H]1NC(=O)[C@H](Cc2c[nH]c3ccccc23)NC(=O)[C@H](CC(N)=O)NC(=O)[C@H](C)NC(=O)[C@H](CO)NC(=O)[C@@H]2CCCN2C(=O)[C@H](CC(=O)O)NC(=O)[C@@H](Cc2ccc(O)cc2)NC(=O)CSC[C@@H](C(=O)NCC(=O)N[C@@H](CO)C(=O)NCCC(=O)NCCC(=O)N[C@@H](CCCNC(=N)N)C(=O)N[C@@H](CCCCNC(=O)c2ccc3c(c2)C(=O)OC32c3ccc(O)cc3Oc3cc(O)ccc32)C(N)=O)NC(=O)[C@H]([C@@H](C)O)NC(=O)[C@H](CC(C)C)NC(=O)[C@H](CC(C)C)NC(=O)[C@H](C(C)C)NC(=O)[C@H](CC(C)C)NC1=O [CP13] ({CH2CO}-[dY]DPSANWILVLLTCGS[βAla][βAla]RK(5FAM)-NH2; thioether N-14; C-terminus assumed) yielded a Transported peptide (ADP 3 mM (background)) of 0.28 µmol·g/min and a Transported peptide (ATP 3 mM) of 0.33 µmol·g/min.
